According to PMC11901578, “Polymethoxyflavones and Bone Metabolism” (Nutrients, 2025):
Read-outs that look alike come from different tables or passages of the source.

Legend:
[1] = tested on: human OA chondrocytes; set-up: method as in PMID 30938722; settings: IL-1-stimulated human OA chondrocytes; cited from earlier work
[2] = tested on: bone resorption in mouse calvarial or alveolar bone organ cultures; settings: 30 μM, bone organ cultures; cited from earlier work
[3] = tested on: human periodontal ligament cells (HPDLCs); settings: 12.5, 25, 50, and 100 μM, TNF- or IL-1-stimulated HPDLCs; cited from earlier work
[4] = target: estrogen receptor-β (Homo sapiens, UniProt Q92731); test: Estrogen receptor-binding assay; settings: unpublished data
Source text: (§1) An anticipated adverse effect of long-term flavonoid supplementation is an estrogen-like effect. Although isoflavones, such as genistein and daidzein, have estrogenic effects via binding to estrogen receptors, there are no reports on polymethoxyflavones. […] On the other hand, excessive long-term intake of PMFs may indicate some toxicity, since a high concentration of PMFs may lead to inhibited cell growth or cell death in various cell types, including osteoblasts, endothelial cells, and cancer cell lines.

[5] = target: estrogen receptor-α (Homo sapiens, UniProt P03372); test: Estrogen receptor-binding assay; settings: unpublished data
Source text: as §1

[6] = tested on: bone marrow macrophages (BMMs); settings: 50 μM; cited from earlier work
[7] = tested on: zebrafish embryos; set-up: method as in PMID 22707269; settings: 30 μM, cited from earlier work
[8] = tested on: IKKβ; set-up: method as in PMID 21258168, PMID 22850615; settings: in vitro kinase assay; cited from earlier work
[9] = tested on: ectopic bone formation in mice; set-up: method as in PMID 36816515; settings: collagen sponge disk with BMP-2 (1 μg) and nobiletin (2.5 or 5 μg), fascia of back muscle; cited from earlier work
[10] = tested on: ovariectomized (OVX) mice; settings: cited from earlier work
[11] = tested on: Raw264.7; settings: cited from earlier work
[12] = tested on: NF-κB signaling in chondrocytes; set-up: method as in PMID 31214026; settings: 10, 20, and 40 μM; cited from earlier work
[13] = tested on: human umbilical vein endothelial cells (HUVECs); set-up: method as in PMID 22707269; settings: read-out: IC50, anti-proliferative effect on HUVECs; cited from earlier work
[14] = tested on: PGE2 production in osteoblasts; set-up: method as in PMID 21258168, PMID 22850615; settings: with downregulation of COX-2; cited from earlier work
[15] = tested on: MH7A human fibroblast-like synoviocytes (FLS); set-up: method as in PMID 31978425; settings: 50 μM; cited from earlier work
[16] = tested on: collagen-induced arthritic mice; settings: cited from earlier work
[17] = tested on: bone resorption in mouse bone organ cultures; set-up: method as in PMID 21258168, PMID 22850615; settings: 60 μM; cited from earlier work
[18] = tested on: DMM-OA mice; settings: cited from earlier work
[19] = tested on: osteoclast differentiation in co-cultures of osteoblasts and bone marrow cells; settings: cited from earlier work
[20] = tested on: osteoclast differentiation in co-culture system; settings: 30 μM, cited from earlier work
[21] = tested on: human osteoblastic cell line MG-63; set-up: method as in PMID 34466066; settings: 10 and 20 μg/mL (approximately 25 and 50 μM); cited from earlier work
[22] = tested on: HL-60 cells; set-up: method as in PMID 23225422; settings: read-out: IC50, anti-proliferative effect on HL-60 cells; cited from earlier work
[23] = tested on: alveolar bone loss in mice; settings: cited from earlier work; for alveolar bone loss in mice, restored: LPS +; for decrease of alveolar bone mineral density (ABMD): co-injection with LPS (25 μg/mouse/day), three times every other day, LPS alone 9%
[24] = intraperitoneal 50 μM for 9 weeks
[25] = intraperitoneal 2 mg/mouse/day (approximately 67 mg/kg) for 4 weeks, Sham mice as 100%
[26] = subcutaneous 0.25 mg/day by mini-osmotic pump for 4 weeks

estrogen receptor-β, sequence (Q92731 whole entry): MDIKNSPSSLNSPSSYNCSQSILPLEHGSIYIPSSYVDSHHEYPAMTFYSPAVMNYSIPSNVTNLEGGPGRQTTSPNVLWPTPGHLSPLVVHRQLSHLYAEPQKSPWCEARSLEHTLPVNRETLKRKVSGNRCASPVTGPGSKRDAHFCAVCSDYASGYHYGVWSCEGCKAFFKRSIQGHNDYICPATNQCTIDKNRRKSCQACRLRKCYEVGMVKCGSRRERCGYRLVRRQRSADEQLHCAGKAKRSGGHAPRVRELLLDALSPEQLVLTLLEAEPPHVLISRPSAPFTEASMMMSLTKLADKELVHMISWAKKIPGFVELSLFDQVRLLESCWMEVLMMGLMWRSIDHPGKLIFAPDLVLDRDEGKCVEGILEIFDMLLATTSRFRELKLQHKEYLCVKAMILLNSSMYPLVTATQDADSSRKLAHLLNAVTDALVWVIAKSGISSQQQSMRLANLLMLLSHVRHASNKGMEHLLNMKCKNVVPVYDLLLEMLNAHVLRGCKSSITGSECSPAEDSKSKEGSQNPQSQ
estrogen receptor-α, sequence (P03372 whole entry): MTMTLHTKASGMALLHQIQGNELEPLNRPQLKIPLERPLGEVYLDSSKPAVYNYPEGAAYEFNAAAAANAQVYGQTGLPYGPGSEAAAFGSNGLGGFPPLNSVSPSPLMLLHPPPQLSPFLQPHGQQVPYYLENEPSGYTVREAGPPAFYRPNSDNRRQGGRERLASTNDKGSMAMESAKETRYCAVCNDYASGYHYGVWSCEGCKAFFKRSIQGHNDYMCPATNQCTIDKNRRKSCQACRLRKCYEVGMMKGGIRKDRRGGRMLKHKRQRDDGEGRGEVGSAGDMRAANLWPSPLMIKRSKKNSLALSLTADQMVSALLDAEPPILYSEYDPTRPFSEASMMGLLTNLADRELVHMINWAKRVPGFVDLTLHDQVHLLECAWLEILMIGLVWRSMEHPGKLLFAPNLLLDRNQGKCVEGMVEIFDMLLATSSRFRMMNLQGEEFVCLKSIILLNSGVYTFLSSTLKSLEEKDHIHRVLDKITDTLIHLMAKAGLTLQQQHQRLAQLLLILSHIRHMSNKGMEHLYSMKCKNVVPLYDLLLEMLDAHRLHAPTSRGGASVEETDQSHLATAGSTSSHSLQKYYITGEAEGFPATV

Structure (SMILES): COc1ccc(-c2cc(=O)c3c(OC)c(OC)c(OC)c(OC)c3o2)cc1OC [Nobiletin, 3′,4′,5,6,7,8-Hexamethoxyflavone]
- overproduction of inflammatory mediators (PGE2, NO, COX-2, iNOS, TNF-α, IL-6, MMPs) [1]: significantly suppressed
- LPS-induced bone-resorbing activity [2]: significantly suppressed
- expression of inflammatory cytokines (CXCL10, CCL2, IL-8), MMP-1, MMP-3, and COX-2 [3]: dose-dependently reduced
- binding to estrogen receptor-β [4]: unable to bind
- binding to estrogen receptor-α [5]: unable to bind
- cytotoxicity to bone marrow macrophages (BMMs) [6]: cytotoxic
- anti-angiogenic effect on zebrafish embryos, inhibited ([7]; listed as nobiletin): ~63%
- anti-angiogenic effect on zebrafish embryos, inhibited [7]: 63% inhibited [47]
- IKKβ kinase activity [8]: directly inhibited
- increase of bone formation (BV/TV) relative to BMP-2 alone [9]: 33%
- effect on body weight and the uterus [10]: without affecting body weight and the uterus
- BMD restored [10, 24]: 4.5%
- BV/TV restored [10, 24]: 16%
- trabecular separation (Tb.Sp) restored [10, 24]: 30%
- bone mineral density (BMD) of the femur restored [10, 25]: 6%
- bone volume/tissue volume (BV/TV) of the femur restored [10, 25]: 34%
- trabecular BMD in the distal femur restored ([10]; oral 50 and 100 mg/kg for 12 weeks, similar effects at both dosages): 8%
- distal BMD in the femur restored [10, 26]: 5%
- whole BMD in the femur restored [10, 26]: 4%
- RANKL-induced osteoclast differentiation ([11]; 4, 20, and 50 μM, Raw264.7): suppressed RANKL-induced osteoclast differentiation in a dose-dependent manner
- osteoclast differentiation in Raw264.7 cultures, inhibited ([11]; RANKL +, 30 μM): 86% inhibited [8]
- IC50 ([11]; RANKL +, read-out: IC50, osteoclast differentiation in Raw264.7 cultures): 8 µM
- IL-1-induced NF-κB signaling [12]: inhibited IL-1-induced NF-κB signaling in a dose-dependent manner
- IC50 [13]: 62 µM
- PGE2 production [14]: suppressed
- IL-21-mediated inflammatory response [15]: suppressed
- gene expression and production of aggrecanase-1 and -2 ([16]; collagen-induced arthritic mice): downregulate
- decrease of severity of arthritis ([16]; intraperitoneal 15, 30, and 60 mg/kg): 45%
- IL-1-induced bone resorption [17]: completely suppressed
- cartilage destruction and synovitis ([18]; DMM-OA mice, intraperitoneal 20 mg/kg every 2 days for 8 weeks): inhibited cartilage destruction and synovitis
- cartilage destruction and subchondral bone thickening ([18]; DMM-OA model mice): prevented cartilage destruction and thickening of the subchondral bone
- inhibition of IL-1-induced osteoclast differentiation ([19]; 10 μM): 20%
- inhibition of IL-1-induced osteoclast differentiation ([19]; 30 μM): 85%
- inhibition of IL-1-induced osteoclast differentiation ([19]; 60 μM): 100%
- IC50 ([19]; IL-1 +, read-out: IC50, osteoclast differentiation in co-culture system): 33 µM
- LPS-induced osteoclast differentiation ([20]; co-cultures): significantly suppressed
- osteoclast differentiation in co-culture system, inhibited ([20]; LPS +): 70% inhibited [8]
- osteoblast differentiation and mineralization [21]: promoted osteoblast differentiation and mineralization in a dose-dependent manner
- IC50 [22]: 52 µM
- alveolar bone loss in mice, restored ([23]; 30 μg/mouse): 5% restored [8]
- alveolar bone loss in mice, restored ([23]; 100 μg/mouse): 6% restored [8]
- alveolar bone loss in mice, restored ([23]; 300 μg/mouse): 9% restored [8]
- decrease of alveolar bone mineral density (ABMD) ([23]; 3 μg/mouse/day): 3%
- decrease of alveolar bone mineral density (ABMD) ([23]; 100 μg/mouse/day): 4%
- decrease of alveolar bone mineral density (ABMD) ([23]; 300 μg/mouse/day): 1%
